Tests used:
[1] = tested on: Tobacco Mosaic Virus (TMV); assay: Protection of tobacco against TMV infection by spraying twice (Example 25); assay type: in vivo, Nicotiana tabacum cv. Xanthi; conditions: sprayed twice, 7 days after infection
Description: 5-chlorosalicylate of choline; 3. 3,5-dichlorosalicylate of choline; 4. 3-chlorosalicylate of sodium, 5. 3-chlorosalicylate of potassium, 6. 3-chlorosalicylate of calcium, 7.

Brome Mosaic Virus (BMV) = assay: Protection of barley against Brome Mosaic Virus infection by watering (Examples 28 and 29); assay type: in vivo; conditions: 2 weeks after infection
[2] = tested on: Pseudomonas syringae pv. Tomato (Pst); assay: Protection of tomato against Pseudomonas syringae pv. Tomato by spraying (Example 33); assay type: in vivo, Lycopersicon Esculentum Mill tomato; conditions: 80 mg/L, sprayed twice; 2 weeks after infection
Description: Tomato plants, at the stage of the first pair of developed true leaves, were watered twice with a solution of substance 1-6 at a concentration of 80 mg/L, at a weekly interval. The control was tomato plants watered only with water. One week after the second treatment, a suspension of Pst bacteria at a concentration of 10^5 was spot-injected into the leaves using an insulin syringe (without a needle). The suspension was prepared from a two-day culture of Pst on solid medium. Protection against biotic stress was evaluated by the proliferation of bacteria in the leaves at the insertion site and the formation of a necrotic spot, compared to the control.
The procedure was followed as in Example 32, with the plants sprayed.

[3] = tested on: Tobacco Mosaic Virus (TMV); assay: Protection of tobacco against TMV infection by watering twice (Example 24); assay type: in vivo, Nicotiana tabacum cv. Xanthi; conditions: watered twice, 7 days after infection
Description: Tobacco plants (Nicotiana tabacum) cv. […] 3,5-dichlorosalicylate of choline; 4. 3-chlorosalicylate of sodium, 5. 3-chlorosalicylate of potassium, 6. 3-chlorosalicylate of calcium, 7. 3-chlorosalicylate of magnesium at a concentration of 10 or 40 or 80 mg/L, at one-week intervals. The control was tobacco plants watered only with water. One week after the second treatment of the plants with the preparation, mechanical infection of the leaves with Tobacco Mosaic Virus (TMV) was carried out. This consisted of rubbing carborundum-sprinkled leaves several times with fingers soaked in a suspension of purified virus at a concentration of about 2 μg/ml. In order to evaluate the effectiveness of the tested substances in protection against biotic stresses, the TMV model and tobacco cv. Xanthi characterized by an interaction in the form of hypersensitivity phenomenon, i.e. the formation of easily quantifiable necrotic spots, were used.

TMV = assay: Protection of tobacco against TMV, single spray, comparison with BION (Example 26); assay type: in vivo, Nicotiana tabacum cv. Xanthi; conditions: sprayed once, infected a week later
Description: Tobacco plants (Nicotiana tabacum) cv. Xanthi at the stage of three developed leaves were sprayed once with solutions of substance 1-5 or BION™ at concentrations of 10, 40, 80 mg/L. A week later, they were mechanically infected with TMV by rubbing the leaves with a square soaked in a suspension of purified virus, with a concentration of about 2 μg/ml. The level of protection against the effects of biotic stress was evaluated by comparing the number of necrotic spots caused by TMV on the leaves of plants treated with substances 1-5 and BION™ and control plants.
A reduction in the number of necrotic spots indicates protection from the effects of the biotic agent on the plant.

Structure (SMILES): C[N+](C)(C)CCO.O=C([O-])c1cccc(Cl)c1O [choline 3-chlorosalicylate]
- % reduction in necrotic spots compared to control ([1]; 10 mg/L): 80%
- % reduction in necrotic spots compared to control ([1]; 40 mg/L): 100%
- % reduction in necrotic spots compared to control ([1]; 80 mg/L): 85%
- % reduction in necrotic spots compared to control (Brome Mosaic Virus (BMV); 10 mg/L, watered): 69%
- % reduction in necrotic spots compared to control (Brome Mosaic Virus (BMV); 80 mg/L, watered twice): 100%
- % reduction in necrotic spots compared to control (Brome Mosaic Virus (BMV); 80 mg/L, watered twice, listed as 2-hydroxyethyl(trimethyl)ammonium 3-chlorosalicylate): 98%
- % reduction in necrotic spots compared to control [2]: 93%
- % reduction in necrotic spots compared to control ([3]; 10 mg/L): 80%
- % reduction in necrotic spots compared to control ([3]; 40 mg/L): 100%
- % reduction in necrotic spots compared to control ([3]; 80 mg/L): 100%
- % reduction in necrotic spots compared to control (TMV; 10 mg/L): 58%
- % reduction in necrotic spots compared to control (TMV; 40 mg/L): 92%
- % reduction in necrotic spots compared to control (TMV; 80 mg/L): 98%

Reference: patent US20260041093A1, “Ionic Derivatives Of Aromatic Carboxylic Acid For Use As Plant Stimulants, Method For Stimulating Plants And Use Of These Derivatives For Manufacturing Compositions For Stimulating Plants” (FUNDACJA UNIWERSYTETU IM. ADAMA MICKIEWICZA W POZNANIU, priority 2022, published 2026)
